The target in data set [1] is T1, H3R (Homo sapiens, UniProt Q9Y5N1).
T1 construct: Gifford Bioscience (contract laboratory that ran the assay)
The experiment in a line: H3R competitive radioligand binding assay using [^3H]AZ13582963. Conditions: competitive binding vs [^3H]AZ13582963; for pKi: read-out: H3R K i.

The target of data set [2] is T2, 5-HT2C (Homo sapiens, UniProt P28335).
T2 sequence (P28335 33-458): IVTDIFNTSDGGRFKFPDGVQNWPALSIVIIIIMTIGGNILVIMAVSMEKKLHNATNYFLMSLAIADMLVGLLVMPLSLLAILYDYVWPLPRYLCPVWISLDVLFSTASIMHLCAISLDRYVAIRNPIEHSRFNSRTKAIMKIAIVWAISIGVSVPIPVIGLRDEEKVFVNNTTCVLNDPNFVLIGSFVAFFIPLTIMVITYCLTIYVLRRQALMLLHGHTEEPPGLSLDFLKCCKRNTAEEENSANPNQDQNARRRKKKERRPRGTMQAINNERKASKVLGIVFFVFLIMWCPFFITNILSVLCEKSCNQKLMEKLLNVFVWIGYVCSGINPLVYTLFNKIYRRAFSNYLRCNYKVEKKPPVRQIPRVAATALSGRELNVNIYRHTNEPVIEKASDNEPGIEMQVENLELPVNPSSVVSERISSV
The experiment in a line: 5HT2C binding assay. Conditions: read-out: 5-HT2C K i.

Data set [3] can be described thus: Log D by shake-flask method. It is filed as physicochemical. The conditions noted are these: n-octanol/PBS. As for the experimental part:
To evaluate the binding affinities of compounds 1–9, competitive radioligand binding assays were conducted using [^3H]-AZ13582963 [4-(1S,2S)-2-(4-cyclobutylpiperazine-1-carbonyl)-cyclopropyl)-N-methyl-[2-^3 H]-benzamide]. […]. […]. Further, ACD Percepta predictions indicated these compounds are likely to cross the blood-brain barrier (BBB), as indicated by a log BB > −1 and a multiparameter optimization (MPO) score >4.0. High selectivity toward H3R over other CNS targets is essential for effective H3R PET imaging. Therefore, off-target screenings of compounds 2, 3, and 4 were conducted against various CNS receptors, G protein-coupled receptors (GPCRs), transporters, and ion channels at 10 μM (Figure S1). […]. Sigma-1 receptors, crucial for ion channel function and associated with learning, memory, and pain, , have shown synergy with H3R antagonists, including PF-03654746 and ABT-239, potentially enhancing in vivo efficacy.
The lipophilicity was measured according to previously reported methods. , In brief, PBS and n-octanol were premixed prior to the experiment. A solution containing 0.2 MBq of [^18F]3 or [^18F]4, PBS (3 mL) and n-octanol (3 mL) were prepared in a vial and vortexed for 5 min. The PBS and n-octanol layers were then separated and transferred into a centrifuge tube, followed centrifugation at 12,000 rpm for 5 min. Then PBS (0.5 mL) and n-octanol (0.05 mL) were weight and measured the radioactivity on a γ counter (PerkinElmer Wizard). The Log D values of [ ^18F]3 and [^18F]4 were calculated using the following formula: LogD=Log[(radioactivityn‐octanol/weightn‐octanol)/(radioactivityPBS/weightPBS)]

Data set [4] concerns the target T2, 5-HT2C. Put plainly: Off-target screening at 10 μM, 5-HT2C. The conditions noted are these: read-out: inhibition of 5-HT2C. It is filed as binding.
Data set [5] deals with 5-hydroxytryptamine receptor 2A (5-HT2A) (Homo sapiens, UniProt P28223). The experiment in a line: Off-target screening at 10 μM, 5-HT2A. It is filed as binding. Conditions: read-out: inhibition of 5-HT2A.
Chain of 5-hydroxytryptamine receptor 2A (5-HT2A) (P28223 whole entry, species assumed): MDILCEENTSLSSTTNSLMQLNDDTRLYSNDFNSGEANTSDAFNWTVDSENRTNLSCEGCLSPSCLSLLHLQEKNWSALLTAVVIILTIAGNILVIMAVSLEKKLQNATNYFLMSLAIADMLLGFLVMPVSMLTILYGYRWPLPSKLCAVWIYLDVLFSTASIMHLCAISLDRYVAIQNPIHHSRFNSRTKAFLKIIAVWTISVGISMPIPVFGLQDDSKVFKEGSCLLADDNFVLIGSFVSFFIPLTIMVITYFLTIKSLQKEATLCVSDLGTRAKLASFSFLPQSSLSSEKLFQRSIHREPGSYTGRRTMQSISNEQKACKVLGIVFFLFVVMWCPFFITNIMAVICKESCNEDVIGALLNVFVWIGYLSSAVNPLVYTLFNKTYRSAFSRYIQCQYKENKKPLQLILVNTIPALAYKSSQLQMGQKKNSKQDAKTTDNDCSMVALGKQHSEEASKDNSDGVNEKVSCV
Another data set deals with sigma-2 (Homo sapiens, UniProt Q5BJF2). The experiment in a line: Off-target screening at 10 μM, sigma-2. It is filed as binding.
Chain of sigma-2 (Q5BJF2 whole entry): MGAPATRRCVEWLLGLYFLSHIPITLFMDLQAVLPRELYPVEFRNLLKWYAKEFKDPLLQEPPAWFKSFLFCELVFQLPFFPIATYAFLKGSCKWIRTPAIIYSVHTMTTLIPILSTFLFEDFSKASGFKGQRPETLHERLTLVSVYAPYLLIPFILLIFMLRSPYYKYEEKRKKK
The target in data set [6] is T3, sigma-1 receptor (Homo sapiens, UniProt Q99720). The experiment in a line: sigma 1 binding assay. Conditions: for selectivity of H3R over sigma-1: ratio of sigma-1 K i to H3R K i; for pKi: read-out: sigma-1 K i.
T3 sequence (Q99720 whole entry, species assumed): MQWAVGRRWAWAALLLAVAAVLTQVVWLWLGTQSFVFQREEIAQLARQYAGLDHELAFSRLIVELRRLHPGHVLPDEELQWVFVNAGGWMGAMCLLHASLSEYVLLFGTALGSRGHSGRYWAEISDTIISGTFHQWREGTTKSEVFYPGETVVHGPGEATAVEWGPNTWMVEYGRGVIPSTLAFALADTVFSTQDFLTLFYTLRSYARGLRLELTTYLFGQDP
For data set [7], the system named is CNS receptors, GPCRs, transporters, and ion channels. Put plainly: Off-target screening panel, CNS target selectivity. It is filed as binding. Conditions: H3R against most CNS targets.
For data set [8], the target named is T3, sigma-1 receptor. Put plainly: Off-target screening at 10 μM, sigma-1. It is filed as binding.
For data set [9], the target named is T4, H3R (Rattus norvegicus, UniProt Q9QYN8).
T4 construct: The brains of SD rat were sectioned into 15 μm slices; from tissue; host or cells: SD rat brain sections
T4 sequence (Q9QYN8 whole entry): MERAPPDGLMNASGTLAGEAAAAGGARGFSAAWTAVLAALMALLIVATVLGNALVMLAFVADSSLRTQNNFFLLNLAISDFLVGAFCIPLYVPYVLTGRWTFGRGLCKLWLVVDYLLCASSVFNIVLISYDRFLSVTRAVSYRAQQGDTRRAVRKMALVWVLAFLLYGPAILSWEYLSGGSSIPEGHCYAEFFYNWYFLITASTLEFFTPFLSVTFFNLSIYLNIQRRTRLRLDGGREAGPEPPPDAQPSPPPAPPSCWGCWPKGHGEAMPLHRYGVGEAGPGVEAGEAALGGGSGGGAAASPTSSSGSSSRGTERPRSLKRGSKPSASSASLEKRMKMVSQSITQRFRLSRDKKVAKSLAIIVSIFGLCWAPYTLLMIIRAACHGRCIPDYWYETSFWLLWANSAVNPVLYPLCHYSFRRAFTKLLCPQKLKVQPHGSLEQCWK
The experiment in a line: In vitro autoradiography on rat brain sections. It is filed as binding, SD rat. As for the experimental part: To validate the target specificity and selectivity, in vitro autoradiography experiments were conducted using [^18F]3 and [^18F]4 on rat brain sections. […] Furthermore, pretreatment with unlabeled compound 3 (10 μM) led to a signal reduction of over 90% in the brain. […] This discrepancy is likely attributable to additional off-target binding of [^18F]3, which is further supported by high uptake in the cerebellum – a region with low H3R expression. […] The high uptake in the cerebellum may be attributed to nonspecific binding to unidentified CNS targets. […] Nonetheless, the results support further in vivo PET evaluation to better understand their binding profiles and evaluate their potential for H3R imaging – particularly in regions with low sigma-1 abundance.
The ARG was measured according to previously reported methods. , The brains of SD rat were sectioned into 15 μm slices and stored in −80 °C. For each experiment, the brain slices allowed them to warm to room temperature and then incubated in Tris-HCl buffer (50 mM, containing 0.1% bovine serum albumin) for 10 min. The slices were incubated with [^18F]3 or [^18F]4 (0.037 MBq/mL) in the presence of either DMSO (baseline study), GSK189254 (10 μM, blocking study), and unlabeled 3 or 4 (10 μM, blocking study) at room temperature for 30 min. Following incubation, the brain slices were washed three times with cold Tris-HCl buffer (50 mM) for 5 min each, and then dipped in water 2 times for 5 s. The brain slices were dried under cold air and exposed to a Phosphor Screen (BAS IP MS2025, Cytiva) for 2 h. The radioactivity and imaging were captured using an Amersham Typhoon 5 (Cytiva) and the data were analyzed using ImageJ software.

The target of data set [10] is T5, H3R (Mus musculus, UniProt P58406).
T5 construct: dynamic PET imaging studies were conducted in CD1 mice; from tissue; host or cells: brain of living CD1 mice
T5 sequence (P58406 whole entry): as the sequence (Q9QYN8 whole entry) above, with T15A, A286T, A290G, R387H, I389V counted along it
Put plainly: Dynamic PET imaging in CD1 mice, baseline and H3R antagonist blocking. It is filed as in vivo. The method, then:
To elucidate the in vivo brain uptake of [^18F]3 and [^18F]4, dynamic PET imaging studies were conducted in CD1 mice (an outbred strain of immunocompetent mice commonly used for pharmacokinetic and biodistribution studies) for 60 min. The results, which include summed PET images (0–60 min), whole-brain time-activity curves (TACs), and area under the curve (AUC) for both radioligands, are depicted in Figures and . At baseline, [^18F]3 rapidly crossed the BBB following intravenous injection, reaching peak whole-brain uptake with a standardized uptake value (SUV) value of 2.4 at 2.3 min. This was followed by a gradual washout and reached a SUV of 1.87 by 60 min. To evaluate the binding characteristics of [^18F]3, elective H3R antagonists with distinct structural scaffolds, GSK189254, enerisant, and cipralisant, were used as blocking agents. […] Quantification of specific tracer binding was performed using volume of distribution (V T) values, derived from compartmental modeling and an image-derived input function (IDIF). […] While these findings support the utility of [^18F]3 for in vivo studies, we acknowledge the inherent limitations of IDIF, including the lack of metabolite correction and potential inaccuracies in capturing early phase kinetics.
PET imaging was conducted following previously reported methods. CD1 mice (5–6 weeks) were anesthetized with 1.5% (v/v) isoflurane during the scan. A dose of 3.0 MBq of [^18F]3 or [^18F]4 was intravenously injected into the tail vein, and a dynamic scan was acquiring using a PET scanner (MOLECUBES, beta-cube) for 60 min. In the blocking studies, GSK189254 (3 mg/kg) in 0.1 mL of saline containing 5% ethanol and 5% Tween-80 was preinjected for 10 min prior to the injection of PET radioligands. The results were reconstructed and analyzed by PMOD 4.3 software.
Quantification of specific tracer binding was performed using volume of distribution (VT) values, derived from compartmental modeling and an image-derived input […]
significant reduction in H3R-rich brain regions such as the cortex and striatum under blocking conditions with GSK189254, enerisant, and cipralisant, confirming the specificity of [18F]3 binding (Table S1).
Table S1. Estimation of V T values by Logan analysis in mice with [ 18F]3 at baseline, GSK189254-blocking (3 mg/kg), enerisant-blocking (3 mg/kg), and cipralisant-blocking (3 mg/kg) conditions.
Group Baseline GSK189254 Enerisant Cipralisant blocking blocking blocking

The term pIC50 denotes the negative decadic logarithm of the IC50, by convention in mol/L. A higher pIC50 goes with a small IC50. For orientation: logD means lipophilicity at a set pH, counting ionised and neutral species. By inhibition is commonly meant how much of the control response was suppressed.

pIC50, pKi: −log10 of the molar value.

T1 sequence (Q9Y5N1 whole entry, species assumed): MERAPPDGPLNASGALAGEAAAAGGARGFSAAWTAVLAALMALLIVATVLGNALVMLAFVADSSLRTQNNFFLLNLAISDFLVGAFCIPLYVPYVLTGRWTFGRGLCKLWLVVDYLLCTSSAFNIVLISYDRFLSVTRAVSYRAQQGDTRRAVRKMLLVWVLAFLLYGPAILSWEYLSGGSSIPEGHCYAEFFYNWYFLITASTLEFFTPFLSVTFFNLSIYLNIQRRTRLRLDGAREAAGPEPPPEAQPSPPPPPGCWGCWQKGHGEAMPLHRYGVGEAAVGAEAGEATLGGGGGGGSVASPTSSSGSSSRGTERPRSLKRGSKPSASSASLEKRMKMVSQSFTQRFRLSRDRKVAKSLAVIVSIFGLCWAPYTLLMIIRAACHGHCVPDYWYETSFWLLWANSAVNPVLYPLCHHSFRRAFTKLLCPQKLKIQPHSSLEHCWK

Consider `O=C([C@H]1C[C@@H]1c1ccc(F)cc1)N1CC2(C1)CN(C1CCC1)C2` [Compound 6, (6-Cyclobutyl-2,6-diazaspiro[3.3]heptan-2-yl)((1S,2S)-2-(4-fluorophenyl)cyclopropyl)methanone], for which, at H3R [1], the negative logarithm of the IC50 (pIC50) is less than 6.00 and the pKi is less than 6.00.
On to `O=C([C@H]1C[C@@H]1c1ccc(F)cc1)N1CCN(C2CCCCC2)CC1` [Compound 4, (4-Cyclohexylpiperazin-1-yl)((1S,2S)-2-(4-fluorophenyl)cyclopropyl)methanone], for which the results for the pKi on 5-HT2C [2] and at sigma-1 receptor [6] were less than 6.00 and 5.89, respectively. For the same compound, the logD in [3] was determined as 3.35. For the same compound, the inhibition at 10 µM on 5-HT2C [4] came out at 80.3%; in data set [5], 59%; against sigma-2, 93.6%; on sigma-1 receptor [8] it was 94.4%. The “selectivity of H3R over sigma-1” value at sigma-1 receptor [6] is reported as 407 fold. Besides, the CNS target selectivity entry in [7] is on record as “over 300 fold”.
Consider `O=C([C@H]1C[C@@H]1c1ccc(F)cc1)N1C[C@@H]2C[C@H]1CN2C1CCC1` [Compound 7, ((1S,4S)-5-Cyclobutyl-2,5-diazabicyclo[2.2.1]heptan-2-yl)((1S,2S)-2-(4-fluorophenyl)cyclopropyl)methanone], for which, at H3R [1], the pIC50 is less than 6.00 and the pKi is less than 6.00.
In the case of `O=C([C@H]1C[C@@H]1c1ccc(F)cc1)N1CCN(C2CCCCCC2)CC1` [Compound 5, (4-Cycloheptylpiperazin-1-yl)((1S,2S)-2-(4-fluorophenyl)cyclopropyl)methanone], on H3R [1], the pIC50 was less than 6.00 and the pKi was less than 6.00.
Turning to `O=C([C@H]1C[C@@H]1c1ccc(-c2ccc([18F])nc2)cc1)N1CCN(C2CCC2)CC1` [[^18F]H3-2404, reference compound], the pKi at H3R [1] was 7.99.
On to `O=C([C@H]1C[C@@H]1c1ccc(F)cc1)N1C[C@@H]2CN(C3CCC3)C[C@@H]2C1` [Compound 8, ((3aR,6aS)-5-Cyclobutylhexahydropyrrolo[3,4-c]pyrrol-2(1H)-yl)((1S,2S)-2-(4-fluorophenyl)cyclopropyl)methanone], for which, on H3R [1], the pIC50 was less than 6.00 and the pKi was less than 6.00.
Take `O=C([C@H]1C[C@@H]1c1ccc([18F])cc1)N1CCN(C2CCCCC2)CC1` [[^18F]4]: the logD in data set [3] is 3.35. Further, the “reduction in radioactivity across brain regions, GSK189254 blocking” value at H3R [9] (GSK189254 10 μM) is 38.7–68.2%. Moreover, the “signal reduction, self-blocking with unlabeled compound” value on H3R [9] (unlabeled 3 or 4 at 10 μM) is 66.6–78.8%. Besides, the “whole-brain signal reduction based on AUC, GSK189254 blocking” value at H3R [10] (GSK189254 3 mg/kg, 0–60 min) is “did not yield a significant reduction”. Also, at H3R [10] (baseline, CD1 mice), the “time of peak whole-brain uptake” value stood at 4.3 min and the “whole-brain uptake at 60 min” value was 1.77 SUV. For the same compound, the peak whole-brain uptake at H3R [10] (baseline, intravenous injection, CD1 mice) came out at 1.83 SUV. For the same compound, the “reduction in whole-brain uptake from peak after 60 min dynamic scan” value on H3R [10] (baseline, washout) is recorded as 3.3%.
In the case of `O=C([C@H]1C[C@@H]1c1ccc(F)cc1)N1CCN(C2CCCC2)CC1` [Compound 3, (4-Cyclopentylpiperazin-1-yl)((1S,2S)-2-(4-fluorophenyl)cyclopropyl)methanone], the pKi at 5-HT2C [2] is less than 6.00; at sigma-1 receptor [6], 6.70. The logD in data set [3] was determined as 2.82. Further, the inhibition at 10 µM in [5] was found to be 64.5%; against sigma-1 receptor [8] it was 93.2%. The “selectivity of H3R over sigma-1” value on sigma-1 receptor [6] amounted to 69 fold. Also, the CNS target selectivity result in data set [7] is “over 300 fold”.
On to `O=C([C@H]1C[C@@H]1c1ccc(F)cc1)N1CCN(C2CCC2)CC1` [Compound 2, (4-Cyclobutylpiperazin-1-yl)((1S,2S)-2-(4-fluorophenyl)cyclopropyl)methanone], for which the logD in [3] amounted to 2.76. Besides, the pKi at sigma-1 receptor [6] is 8.79. The inhibition at 10 µM against sigma-1 receptor [8] worked out at 98.1%.
In turn, `[11CH3]NC(=O)c1ccc([C@H]2C[C@@H]2C(=O)N2CCN(C3CCC3)CC2)cc1` [AZD13153556, reference compound] gave a pIC50 at H3R [1] of 7.63.

(Values after article PMC12362585, “Development and Preclinical Characterization of [^18F]H3-2406 and [^18F]H3-2407 for Positron Emission Tomography Imaging of the Histamine Subtype‑3 Receptor” (Journal of Medicinal Chemistry, 2025).)
